Series [1] relates to Puccinia recondita f. sp. tritici. In words: Fungicidal activity against Puccinia recondita f. sp. tritici / wheat / leaf disc preventative (brown rust). The format is in vivo. Particulars: foliar, 200 ppm in the applied formulation, wheat leaf segments cv. Kanzler, inoculated 1 day after application, assessed 7 to 9 days after application, compared to untreated, read-out: disease control. The protocol: Leaf disks or leaf segments of various plant species are cut from plants grown in a greenhouse. The cut leaf disks or segments are placed in multiwell plates (24-well format) onto water agar. The leaf disks are sprayed with a test solution before (preventative) or after (curative) inoculation. Compounds to be tested are prepared as DMSO solutions (max. 10 mg/mL) which are diluted to the appropriate concentration with 0.025% Tween20 just before spraying. The inoculated leaf disks or segments are incubated under defined conditions (temperature, relative humidity, light, etc.) according to the respective test system. A single evaluation of disease level is carried out 3 to 14 days after inoculation, depending on the pathosystem. Percent disease control relative to the untreated check leaf disks or segments is then calculated. Wheat leaf segments cv. Kanzler were placed on agar in multiwell plates (24-well format) and sprayed with the formulated test compound diluted in water. The leaf disks were inoculated with a spore suspension of the fungus 1 day after application. The inoculated leaf segments were incubated at 19° C. and 75% relative humidity (rh) under a light regime of 12 hours light/12 hours darkness in a climate cabinet and the activity of a compound was assessed as percent disease control compared to untreated when an appropriate level of disease damage appears in untreated check leaf segments (7 to 9 days after application). The following compounds at 200 ppm in the applied formulation give at least 80% disease control in this test when compared to untreated control leaf disks under the same conditions, which show extensive disease development.

For series [2] the test system is unchanged. In words: Fungicidal activity against Puccinia recondita f. sp. tritici / wheat / leaf disc curative (brown rust). The format is in vivo. The following applies: foliar, 200 ppm in the applied formulation, wheat leaf segments cv. Kanzler, applied 1 day after inoculation, assessed 6 to 8 days after application, compared to untreated, read-out: disease control. The protocol:
Leaf disks or leaf segments of various plant species are cut from plants grown in a greenhouse. The cut leaf disks or segments are placed in multiwell plates (24-well format) onto water agar. The leaf disks are sprayed with a test solution before (preventative) or after (curative) inoculation. Compounds to be tested are prepared as DMSO solutions (max. 10 mg/mL) which are diluted to the appropriate concentration with 0.025% Tween20 just before spraying. The inoculated leaf disks or segments are incubated under defined conditions (temperature, relative humidity, light, etc.) according to the respective test system. A single evaluation of disease level is carried out 3 to 14 days after inoculation, depending on the pathosystem. Percent disease control relative to the untreated check leaf disks or segments is then calculated. Wheat leaf segments cv. Kanzler are placed on agar in multiwell plates (24-well format). The leaf segments are then inoculated with a spore suspension of the fungus. Plates were stored in darkness at 19° C. and 75% relative humidity. The formulated test compound diluted in water was applied 1 day after inoculation. The leaf segments were incubated at 19° C. and 75% relative humidity under a light regime of 12 hours light/12 hours darkness in a climate cabinet and the activity of a compound was assessed as percent disease control compared to untreated when an appropriate level of disease damage appears in untreated check leaf segments (6 to 8 days after application). The following compounds at 200 ppm in the applied formulation give at least 80% disease control in this test when compared to untreated control leaf disks under the same conditions, which show extensive disease development.

The test system of the next series is Phakopsora pachyrhizi. In words: Fungicidal activity against Phakopsora pachyrhizi / soybean / leaf disc preventative (Asian soybean rust). The format is in vivo. Particulars: foliar, 200 ppm in the applied formulation, soybean leaf disks, inoculated one day after application, assessed 12 to 14 days after application, compared to untreated, read-out: disease control. As to the method: Leaf disks or leaf segments of various plant species are cut from plants grown in a greenhouse. The cut leaf disks or segments are placed in multiwell plates (24-well format) onto water agar. The leaf disks are sprayed with a test solution before (preventative) or after (curative) inoculation. Compounds to be tested are prepared as DMSO solutions (max. 10 mg/mL) which are diluted to the appropriate concentration with 0.025% Tween20 just before spraying. The inoculated leaf disks or segments are incubated under defined conditions (temperature, relative humidity, light, etc.) according to the respective test system. A single evaluation of disease level is carried out 3 to 14 days after inoculation, depending on the pathosystem. Percent disease control relative to the untreated check leaf disks or segments is then calculated. Soybean leaf disks are placed on water agar in multiwell plates (24-well format) and sprayed with the formulated test compound diluted in water. One day after application leaf discs are inoculated by spraying a spore suspension on the lower leaf surface. After an incubation period in a climate cabinet of 24-36 hours in darkness at 20° C. and 75% rh leaf disc are kept at 20° C. with 12 hours light/day and 75% rh. The activity of a compound is assessed as percent disease control compared to untreated when an appropriate level of disease damage appears in untreated check leaf disks (12 to 14 days after application). The following compounds at 200 ppm in the applied formulation give at least 80% disease control in this test when compared to untreated control leaf disks under the same conditions, which show extensive disease development.

The subject of series [3] is Glomerella lagenarium (Colletotrichum lagenarium). In words: Fungicidal activity against Glomerella lagenarium (Colletotrichum lagenarium) liquid culture / cucumber / preventative (anthracnose). Particulars: Colletotrichum orbiculare; 20 ppm in the applied formulation; liquid culture in PDB, 24° C.; 3 to 4 days after application; compared to untreated control; read-out: disease control (inhibition of growth measured photometrically). The format is cell-based. As to the method:
Mycelia fragments or conidia suspensions of a fungus prepared either freshly from liquid cultures of the fungus or from cryogenic storage, are directly mixed into nutrient broth. DMSO solutions of the test compound (max. 10 mg/mL) are diluted with 0.025% Tween20 by a factor of 50 and 10 μL of this solution is pipetted into a microtiter plate (96-well format). The nutrient broth containing the fungal spores/mycelia fragments is then added to give an end concentration of the tested compound. The test plates are incubated in the dark at 24° C. and 96% relative humidity (rh). The inhibition of fungal growth is determined photometrically after 2 to 7 days, depending on the pathosystem, and percent antifungal activity relative to the untreated check is calculated. Conidia of the fungus from cryogenic storage are directly mixed into nutrient broth (PDB—potato dextrose broth). After placing a (DMSO) solution of test compound into a microtiter plate (96-well format), the nutrient broth containing the fungal spores is added. The test plates are incubated at 24° C. and the inhibition of growth is measured photometrically 3 to 4 days after application. The following compounds at 20 ppm in the applied formulation give at least 80% disease control in this test when compared to untreated control under the same conditions, which show extensive disease development.

Consider 3 compounds from patent publication US20210267204A1, “MICROBIOCIDAL OXADIAZOLE DERIVATIVES” (SYNGENTA CROP PROTECTION AG, priority 2018, published 2021).

Regarding `NC(=S)c1nccn1Cc1ccc(-c2noc(C(F)(F)F)n2)s1` [Compound 1.12, 1-[[5-[5-(trifluoromethyl)-1,2,4-oxadiazol-3-yl]-2-thienyl]methyl] imidazole-2-carbothioamide], the melting point lay in the range of 170 to 172 °C. In addition, the pest or weed control at 200 ppm in series [1] is no less than 80%. Besides, in series [2], the pest or weed control at 200 ppm is no less than 80%. Besides, in the series with Phakopsora pachyrhizi, the pest or weed control at 200 ppm is no less than 80%. Moreover, the inhibition at 20 ppm in series [3] is no less than 80%.
Compound `FC(F)(F)c1nc(-c2ccc(Cn3cc(CNC(=S)C4CC4)cn3)s2)no1` [Compound 1.13, N-[[1-[[5-[5-(trifluoromethyl)-1,2,4-oxadiazol-3-yl]-2-thienyl]methyl]pyrazol-4-yl]methyl] cyclopropane carbothioamide] showed a melting point of 165.5 to 167 °C. Besides, the pest or weed control at 200 ppm in series [1] is no less than 80%. For the same compound, the pest or weed control at 200 ppm in series [2] was no less than 80%. Moreover, in the series on Phakopsora pachyrhizi, the pest or weed control at 200 ppm was no less than 80%. In addition, in series [3], the inhibition at 20 ppm is no less than 80%.
`COCC(=S)NCc1cnn(Cc2ccc(-c3noc(C(F)(F)F)n3)s2)c1` [Compound 1.14, 2-methoxy-N-[[1-[[5-[5-(trifluoromethyl)-1,2,4-oxadiazol-3-yl]-2-thienyl]methyl]pyrazol-4-yl]methyl]thioacetamide] yielded a melting point of 135.5 to 140.3 °C. For the same compound, the pest or weed control at 200 ppm in series [1] was no less than 80%. The pest or weed control at 200 ppm in series [2] is no less than 80%. The pest or weed control at 200 ppm with Phakopsora pachyrhizi was no less than 80%. Further, the inhibition at 20 ppm in series [3] was no less than 80%.
